Source: patent publication US10894788B2, “Inhibitors of cyclin-dependent kinases” (Kinnate Biopharma Inc., priority 2018, dated 2021)

Tests used:
[1] = biological target: CDK12 wt/CycK (Homo sapiens (Human), UniProt Q9NYV4); experiment: Radiometric protein kinase assay (33PanQinase Activity Assay), Assay Condition A (thiol containing conditions); assay type: biochemical; conditions: thiol containing conditions (1.2 mM DTT), ATP 0.3 μM; read-out: CDK12 IC50 Condition A
Method in brief: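 Recombinant human kinase incubated with [33P]ATP, substrate and compound (10 concentrations, 1×10^−04M to 3×10^−09M, singlicate, 1% DMSO) under thiol-containing buffer conditions, 60 min at 30 °C. 33Pi incorporation counted by scintillation; residual activity normalised to no-inhibitor and no-kinase controls, IC50 derived.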

[2] = biological target: CDK12 (Homo sapiens (Human), UniProt Q9NYV4); experiment: Radiometric protein kinase assay (33PanQinase Activity Assay), Assay Condition B (thiol-free conditions); assay type: biochemical; conditions: thiol-free conditions (1 mM TCEP, glutathione removed)
Method in brief: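 Radiometric 33PanQinase assay under thiol-free conditions: glutathione removed from protein preparations and no thiol reagents in buffer. Ten concentrations, 1×10^−05 M to 3×10^−10 M, singlicate, 1% DMSO final. Residual activity normalised to no-enzyme and no-inhibitor controls; IC50 by least-squares fit.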

[3] = system: panel of 1,151 cancer cell lines; conditions: in 52% of 1,151 cancer cell lines; cited from earlier work

CDK12 wt/CycK, sequence (Q9NYV4 whole entry): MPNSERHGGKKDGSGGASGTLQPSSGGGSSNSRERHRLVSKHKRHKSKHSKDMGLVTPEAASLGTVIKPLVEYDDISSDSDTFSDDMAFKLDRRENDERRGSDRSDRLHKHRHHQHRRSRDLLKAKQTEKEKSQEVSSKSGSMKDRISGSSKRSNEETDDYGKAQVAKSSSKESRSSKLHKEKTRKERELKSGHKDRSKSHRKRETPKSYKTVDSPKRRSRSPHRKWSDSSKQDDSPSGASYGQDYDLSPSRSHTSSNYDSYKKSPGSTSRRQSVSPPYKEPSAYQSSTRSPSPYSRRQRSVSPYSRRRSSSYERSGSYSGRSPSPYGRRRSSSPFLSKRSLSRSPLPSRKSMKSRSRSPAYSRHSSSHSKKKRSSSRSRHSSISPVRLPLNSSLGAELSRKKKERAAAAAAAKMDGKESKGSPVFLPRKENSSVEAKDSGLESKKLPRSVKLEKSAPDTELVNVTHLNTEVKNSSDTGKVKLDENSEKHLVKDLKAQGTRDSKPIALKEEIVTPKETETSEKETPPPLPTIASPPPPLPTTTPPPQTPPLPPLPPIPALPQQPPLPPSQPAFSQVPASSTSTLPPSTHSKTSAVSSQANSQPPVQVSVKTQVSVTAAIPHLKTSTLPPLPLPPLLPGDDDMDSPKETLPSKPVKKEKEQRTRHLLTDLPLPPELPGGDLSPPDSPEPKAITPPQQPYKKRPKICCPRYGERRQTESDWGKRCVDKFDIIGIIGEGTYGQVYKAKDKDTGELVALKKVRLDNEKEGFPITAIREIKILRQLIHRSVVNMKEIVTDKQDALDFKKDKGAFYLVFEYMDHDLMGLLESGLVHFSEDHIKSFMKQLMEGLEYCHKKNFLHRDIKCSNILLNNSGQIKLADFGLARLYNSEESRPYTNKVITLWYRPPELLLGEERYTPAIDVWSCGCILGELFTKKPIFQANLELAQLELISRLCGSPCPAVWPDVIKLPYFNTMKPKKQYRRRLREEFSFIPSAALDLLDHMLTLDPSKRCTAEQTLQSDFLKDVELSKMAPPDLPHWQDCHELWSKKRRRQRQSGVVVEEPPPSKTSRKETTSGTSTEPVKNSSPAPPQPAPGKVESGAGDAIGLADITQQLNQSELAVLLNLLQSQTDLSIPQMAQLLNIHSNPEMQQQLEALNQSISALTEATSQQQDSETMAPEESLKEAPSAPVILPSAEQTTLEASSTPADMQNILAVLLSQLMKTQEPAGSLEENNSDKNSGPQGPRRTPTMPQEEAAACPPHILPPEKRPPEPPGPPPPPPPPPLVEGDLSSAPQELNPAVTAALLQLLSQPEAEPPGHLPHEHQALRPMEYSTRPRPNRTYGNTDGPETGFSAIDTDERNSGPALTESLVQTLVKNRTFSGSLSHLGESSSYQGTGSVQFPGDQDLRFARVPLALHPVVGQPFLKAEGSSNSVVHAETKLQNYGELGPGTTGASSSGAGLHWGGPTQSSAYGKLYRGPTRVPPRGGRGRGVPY
CDK12 wt/CycK, sequence (O75909 whole entry partner): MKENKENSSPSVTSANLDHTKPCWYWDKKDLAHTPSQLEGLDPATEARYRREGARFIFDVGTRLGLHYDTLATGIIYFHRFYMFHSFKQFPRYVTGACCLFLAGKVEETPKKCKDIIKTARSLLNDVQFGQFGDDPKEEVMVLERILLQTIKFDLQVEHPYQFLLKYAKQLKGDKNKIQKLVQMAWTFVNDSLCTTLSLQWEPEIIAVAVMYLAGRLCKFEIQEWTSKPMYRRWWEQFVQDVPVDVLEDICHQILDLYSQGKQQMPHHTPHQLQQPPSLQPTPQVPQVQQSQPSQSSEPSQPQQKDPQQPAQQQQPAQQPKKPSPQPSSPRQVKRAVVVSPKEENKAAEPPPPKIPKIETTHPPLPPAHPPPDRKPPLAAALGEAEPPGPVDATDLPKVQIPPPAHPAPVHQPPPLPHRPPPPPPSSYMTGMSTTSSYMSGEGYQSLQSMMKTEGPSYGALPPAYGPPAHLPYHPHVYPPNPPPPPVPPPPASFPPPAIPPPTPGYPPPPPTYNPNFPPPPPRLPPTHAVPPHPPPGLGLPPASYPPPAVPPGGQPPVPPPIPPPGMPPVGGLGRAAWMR
CDK12, sequence (Q9NYV4 whole entry): as the sequence (Q9NYV4 whole entry) above
CDK12, sequence (O75909 whole entry partner): as the sequence (O75909 whole entry partner) above

Row | SMILES | IC50 [1] | IC50 [2] | IC50 [3]
1 | CCC(=O)Nc1ccc(C(=O)N2CC[C@@H](Nc3ncc(Br)c(OC)n3)C2)cc1 [Example 14, (R)—N-(4-(3-((5-bromo-4-methoxypyrimidin-2-yl)amino)pyrrolidine-1-carbonyl)phenyl)propionamide] | < 100 nM | < 100 nM | –
2 | CCC(=O)Nc1ccc(C(=O)N2CC[C@@H](Nc3ncc(Br)cn3)C2)cc1 [Example 17, (R)—N-(4-(3-((5-bromopyrimidin-2-yl)amino)pyrrolidine-1-carbonyl)phenyl)propionamide] | 100 to 1000 nM | 100 to 1000 nM | –
3 | C=CC(=O)Nc1ccc(C(=O)N2CC[C@@H](Nc3ncc(Br)cn3)C2)cc1 [Example 19, (R)—N-(4-(3-((5-bromopyrimidin-2-yl)amino)pyrrolidine-1-carbonyl)phenyl)acrylamide] | < 100 nM | < 100 nM | –
4 | C=CC(=O)Nc1ccc(C(=O)N2CC[C@@H](Nc3ncc(Br)c(OC)n3)C2)cc1 [Example 20, (R)—N-(4-(3-((5-bromo-4-methoxypyrimidin-2-yl)amino)pyrrolidine-1-carbonyl)phenyl)acrylamide] | < 100 nM | < 100 nM | –
5 | C=CC(=O)N(C)c1ccc(C(=O)N2CC[C@@H](Nc3ncc(Cl)c(OC)n3)C2)cc1 [Example 25, (R)—N-(4-(3-((5-chloro-4-methoxypyrimidin-2-yl)amino)pyrrolidine-1-carbonyl)phenyl)-N-methylacrylamide] | < 100 nM | < 100 nM | –
6 | C=CC(=O)Nc1ccc(C(=O)N2CC[C@@H](Nc3ncc(Cl)c(OC)n3)C2)cc1C [Example 26, (R)—N-(4-(3-((5-chloro-4-methoxypyrimidin-2-yl)amino)pyrrolidine-1-carbonyl)-2-methylphenyl)acrylamide] | < 100 nM | < 100 nM | –
7 | C=CC(=O)N(C)c1ccc(C(=O)N2CC[C@@H](Nc3ncc(Cl)cn3)C2)cc1 [Example 28, (R)—N-(4-(3-((5-chloropyrimidin-2-yl)amino)pyrrolidine-1-carbonyl)phenyl)-N-methylacrylamide] | 100 to 1000 nM | 100 to 1000 nM | –
8 | C=CC(=O)Nc1ccc(C(=O)N2CC[C@@H](Nc3ncc(Cl)cn3)C2)cc1C [Example 29, (R)—N-(4-(3-((5-chloropyrimidin-2-yl)amino)pyrrolidine-1-carbonyl)-2-methylphenyl)acrylamide] | 100 to 1000 nM | < 100 nM | –
9 | C=CC(=O)Nc1ccc(C(=O)N2CC[C@@H](Nc3ncc(Cl)c(OC)n3)C2)cc1 [Example 47, (R)—N-(4-(3-((5-chloro-4-methoxypyrimidin-2-yl)amino)pyrrolidine-1-carbonyl)phenyl)acrylamide] | < 100 nM | < 100 nM | –
10 | C=CC(=O)Nc1ccc(C(=O)N2CC[C@@H](Nc3ncc(Cl)c(C)n3)C2)cc1 [Example 52, (R)—N-(4-(3-((5-chloro-4-methylpyrimidin-2-yl)amino)pyrrolidine-1-carbonyl)phenyl)acrylamide] | 100 to 1000 nM | < 100 nM | –
11 | C=CC(=O)Nc1ccc(C(=O)N2CC[C@@H](Nc3cnc(Cl)cn3)C2)cc1 [Example 53, (R)—N-(4-(3-((5-chloropyrazin-2-yl)amino)pyrrolidine-1-carbonyl)phenyl)acrylamide] | 100 to 1000 nM | 100 to 1000 nM | –
12 | C=CC(=O)Nc1ccc(C(=O)N2CC[C@@H](Nc3cc(OC)c(Cl)cn3)C2)cc1 [Example 54, (R)—N-(4-(3-((5-chloro-4-methoxypyridin-2-yl)amino)pyrrolidine-1-carbonyl)phenyl)acrylamide] | < 100 nM | < 100 nM | –
13 | C=CC(=O)Nc1ccc(C(=O)N2CC[C@@H](Nc3cc(C)c(Cl)cn3)C2)cc1 [Example 55, (R)—N-(4-(3-((5-chloro-4-methylpyridin-2-yl)amino)pyrrolidine-1-carbonyl)phenyl)acrylamide] | 100 to 1000 nM | < 100 nM | –
14 | C=CC(=O)Nc1ccc(C(=O)N2CC[C@@H](Nc3ncc(C4CC4)cn3)C2)cc1 [Example 58, (R)—N-(4-(3-((5-cyclopropylpyrimidin-2-yl)amino)pyrrolidine-1-carbonyl)phenyl)acrylamide] | 100 to 1000 nM | < 100 nM | –
15 | C=CC(=O)Nc1ccc(C(=O)N2CC[C@@H](Nc3ncc(F)c(OC)n3)C2)cc1 [Example 59, (R)—N-(4-(3-((5-fluoro-4-methoxypyrimidin-2-yl)amino)pyrrolidine-1-carbonyl)phenyl)acrylamide] | 1000 to 10000 nM | 100 to 1000 nM | –
16 | C=CC(=O)Nc1ccc(C(=O)N2CC[C@@H](Nc3ncc(Cl)c(NC)n3)C2)cc1 [Example 62, (R)—N-(4-(3-((5-chloro-4-(methylamino)pyrimidin-2-yl)amino)pyrrolidine-1-carbonyl)phenyl)acrylamide] | < 100 nM | < 100 nM | –
17 | C=CC(=O)Nc1ccc(C(=O)N2CC[C@@H](Nc3ncc(Cl)c(OC)n3)C2)cc1N1CCN(C)CC1 [Example 78, (R)—N-(4-(3-((5-chloro-4-methoxypyrimidin-2-yl)amino)pyrrolidine-1-carbonyl)-2-(4-methylpiperazin-1-yl)phenyl)acrylamide] | – | < 100 nM | –
18 | C=CC(=O)Nc1ccc(C(=O)N2CC[C@@H](Nc3ncc(C(F)(F)F)cn3)C2)cc1C [Example 79, (R)—N-(2-methyl-4-(3-((5-(trifluoromethyl)pyrimidin-2-yl)amino)pyrrolidine-1-carbonyl)phenyl)acrylamide] | – | < 100 nM | –
19 | C=CC(=O)Nc1ccc(C(=O)N2CC[C@@H](Nc3ncc(Cl)c(C)n3)C2)cc1C [Example 80, (R)—N-(4-(3-((5-chloro-4-methylpyrimidin-2-yl)amino)pyrrolidine-1-carbonyl)-2-methylphenyl)acrylamide] | – | 100 to 1000 nM | –
20 | C=CC(=O)Nc1ccc(C(=O)N2CC[C@@H](Nc3ncc(C)c(OC4CC4)n3)C2)cc1 [Example 81, (R)—N-(4-(3-((4-cyclopropoxy-5-methylpyrimidin-2-yl)amino)pyrrolidine-1-carbonyl)phenyl)acrylamide] | – | 100 to 1000 nM | –
21 | C=CC(=O)Nc1ccc(C(=O)N2CC[C@@H](Nc3ncc(Cl)c(OC)n3)C2)cc1-c1cnn(C)c1 [Example 82, (R)—N-(4-(3-((5-chloro-4-methoxypyrimidin-2-yl)amino)pyrrolidine-1-carbonyl)-2-(1-methyl-1H-pyrazol-4-yl)phenyl)acrylamide] | – | 100 to 1000 nM | –
22 | C=C(CC)C(=O)Nc1ccc(C(=O)N2CC[C@@H](Nc3ncc(Cl)cn3)C2)cc1 [Example 83, (R)—N-(4-(3-((5-chloropyrimidin-2-yl)amino)pyrrolidine-1-carbonyl)phenyl)-2-methylenebutanamide] | – | 100 to 1000 nM | –
23 | C=CS(=O)(=O)Nc1ccc(C(=O)N2CC[C@@H](Nc3ncc(Cl)cn3)C2)cc1 [Example 84, (R)—N-(4-(3-((5-chloropyrimidin-2-yl)amino)pyrrolidine-1-carbonyl)phenyl)ethenesulfonamide] | – | 100 to 1000 nM | –
24 | C=CC(=O)Nc1ccc(C(=O)N2CC[C@@H](Nc3ccc(C4CC4)cn3)C2)cc1 [Example 85, (R)—N-(4-(3-((5-cyclopropylpyridin-2-yl)amino)pyrrolidine-1-carbonyl)phenyl)acrylamide] | – | 100 to 1000 nM | –
25 | C#Cc1cnc(N[C@@H]2CCN(C(=O)c3ccc(N(C)C(=O)C=C)cc3)C2)nc1 [Example 113, (R)—N-(4-(3-((5-ethynylpyrimidin-2-yl)amino)pyrrolidine-1-carbonyl)phenyl)-N-methylacrylamide] | – | 100 to 1000 nM | –
26 | CN(C)C/C=C/C(=O)Nc1ccc(C(=O)Nc2cccc(Nc3ncc(Cl)c(-c4c[nH]c5ccccc45)n3)c2)cc1 [THZ1] | – | – | < 200 nM
